Our source for the solubility values is US20230143604A1, “QW DOSING OF GIP RECEPTOR AGONIST PEPTIDE COMPOUNDS AND USES THEREOF” (TAKEDA PHARMACEUTICAL COMPANY LIMITED, priority 2020, published 2023).

The solubility is how much of the substance goes into solution per volume. Higher therefore signals a readily soluble substance.

Molecules are shown by their SMILES. Starred links: 1 amine or outer side, 2 acyl side, 3 side chain; linkers in the order of their positions; H or OH if unused. Non-standard residues stand in square brackets, D forms with d. Residues, ends and D or L forms follow the SMILES beside them. Groups on a side chain read outwards from the residue. *: point of attachment. C18 diacid = O=C(O)CCCCCCCCCCCCCCCCC(=O)*; γGlu = O=C(O)[C@H](CCC(=O)[*:2])N[*:1]; NMeY = CN[C@@H](Cc1ccc(O)cc1)C(=O)O; AEEA = NCCOCCOCC(=O)O; Aib = CC(C)(N)C(=O)O A value given as a limit tells only on which side of the number the result lay.

The data set in a line: physchem. The note with it: pH 7.4, aqueous buffer. The procedure, abridged:
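Solubility at pH 7.4 determined by stepwise addition of 200 mM phosphate buffer in 100 μL increments to 3 mg peptide, mixing briefly each time, until no insoluble material remained, then measured by liquid chromatography.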
`CC[C@H](C)[C@H](NC(=O)[C@H](CO)NC(=O)[C@H](Cc1ccc(O)cc1)NC(=O)[C@H](CC(=O)O)NC(=O)[C@H](CO)NC(=O)[C@@H](NC(=O)[C@H](Cc1ccccc1)NC(=O)[C@@H](NC(=O)CNC(=O)[C@H](CCC(=O)O)NC(=O)C(C)(C)NC(=O)[C@H](Cc1ccc(O)cc1)NC)[C@@H](C)O)[C@@H](C)CC)C(=O)N[C@@H](C)C(=O)N[C@@H](CC(C)C)C(=O)N[C@@H](CC(=O)O)C(=O)N[C@@H](CCCNC(=N)N)C(=O)N[C@H](C(=O)N[C@@H](Cc1c[nH]cn1)C(=O)N[C@@H](CCC(N)=O)C(=O)N[C@@H](CCCCNC(=O)COCCOCCNC(=O)COCCOCCNC(=O)CC[C@H](NC(=O)CCCCCCCCCCCCCCCCC(=O)O)C(=O)O)C(=O)N[C@@H](CC(N)=O)C(=O)N[C@@H](Cc1ccccc1)C(=O)N[C@H](C(=O)N[C@@H](CC(N)=O)C(=O)N[C@@H](Cc1c[nH]c2ccccc12)C(=O)N[C@@H](CC(C)C)C(=O)N[C@@H](CC(C)C)C(=O)N[C@@H](C)C(=O)N[C@@H](CCC(N)=O)C(=O)N[C@@H](CCCCN)C(=O)O)C(C)C)[C@@H](C)CC` [Compound 247] (H-[NMeY][Aib]EGTFISDYSIALDRIHQK([AEEA-AEEA-γGlu-C18 diacid])NFVNWLLAQK-OH; C-terminus assumed): the solubility was ≥ 9900 µg/mL. As to `CC[C@H](C)[C@H](NC(=O)[C@H](CO)NC(=O)[C@H](Cc1ccc(O)cc1)NC(=O)[C@H](CC(=O)O)NC(=O)[C@H](CO)NC(=O)[C@@H](NC(=O)[C@H](Cc1ccccc1)NC(=O)[C@@H](NC(=O)CNC(=O)[C@H](CCC(=O)O)NC(=O)C(C)(C)NC(=O)[C@H](Cc1ccc(O)cc1)NC)[C@@H](C)O)[C@@H](C)CC)C(=O)N[C@@H](C)C(=O)N[C@@H](CC(C)C)C(=O)N[C@@H](CC(=O)O)C(=O)N[C@@H](CCCNC(=N)N)C(=O)N[C@H](C(=O)N[C@@H](Cc1c[nH]cn1)C(=O)N[C@@H](CCC(N)=O)C(=O)NC(C)(C)C(=O)N[C@@H](CC(N)=O)C(=O)N[C@@H](Cc1ccccc1)C(=O)N[C@H](C(=O)N[C@@H](CC(N)=O)C(=O)N[C@@H](Cc1c[nH]c2ccccc12)C(=O)N[C@@H](CC(C)C)C(=O)N[C@@H](CC(C)C)C(=O)N[C@@H](C)C(=O)N[C@@H](CCC(N)=O)C(=O)N[C@@H](CCCCNC(=O)COCCOCCNC(=O)COCCOCCNC(=O)CC[C@H](NC(=O)CCCCCCCCCCCCCCCCC(=O)O)C(=O)O)C(=O)O)C(C)C)[C@@H](C)CC` [Compound 248] (H-[NMeY][Aib]EGTFISDYSIALDRIHQ[Aib]NFVNWLLAQK([AEEA-AEEA-γGlu-C18 diacid])-OH; C-terminus assumed), the solubility was ≥ 6800 µg/mL.

As for `CC[C@H](C)[C@H](NC(=O)[C@H](CO)NC(=O)[C@H](Cc1ccc(O)cc1)NC(=O)[C@H](CC(=O)O)NC(=O)[C@H](CO)NC(=O)[C@@H](NC(=O)[C@H](Cc1ccccc1)NC(=O)[C@@H](NC(=O)CNC(=O)[C@H](CCC(=O)O)NC(=O)C(C)(C)NC(=O)[C@@H](N)Cc1ccc(O)cc1)[C@@H](C)O)[C@@H](C)CC)C(=O)N[C@@H](C)C(=O)N[C@@H](CC(C)C)C(=O)N[C@@H](CC(=O)O)C(=O)N[C@@H](CCCNC(=N)N)C(=O)N[C@H](C(=O)N[C@@H](Cc1c[nH]cn1)C(=O)N[C@@H](CCC(N)=O)C(=O)N[C@@H](CCC(N)=O)C(=O)N[C@@H](CC(N)=O)C(=O)N[C@@H](Cc1ccccc1)C(=O)N[C@H](C(=O)N[C@@H](CC(N)=O)C(=O)N[C@@H](Cc1c[nH]c2ccccc12)C(=O)N[C@@H](CC(C)C)C(=O)N[C@@H](CC(C)C)C(=O)N[C@@H](C)C(=O)N[C@@H](CCC(N)=O)C(=O)N[C@@H](CCCCNC(=O)COCCOCCNC(=O)COCCOCCNC(=O)CC[C@H](NC(=O)CCCCCCCCCCCCCCCCC(=O)O)C(=O)O)C(=O)O)C(C)C)[C@@H](C)CC` [Compound 249] (H-Y[Aib]EGTFISDYSIALDRIHQQNFVNWLLAQK([AEEA-AEEA-γGlu-C18 diacid])-OH; N-terminus and C-terminus assumed), the solubility was ≥ 6800 µg/mL.

Consider `CC[C@H](C)[C@H](NC(=O)[C@H](CO)NC(=O)[C@H](Cc1ccc(O)cc1)NC(=O)[C@H](CC(=O)O)NC(=O)[C@H](CO)NC(=O)[C@@H](NC(=O)[C@H](Cc1ccccc1)NC(=O)[C@@H](NC(=O)CNC(=O)[C@H](CCC(=O)O)NC(=O)C(C)(C)NC(=O)[C@H](Cc1ccc(O)cc1)NC)[C@@H](C)O)[C@@H](C)CC)C(=O)N[C@@H](C)C(=O)N[C@@H](CCCCNC(=O)CNC(=O)CNC(=O)CNC(=O)CNC(=O)CNC(=O)CCCCCCCCCCCCCCCCC(=O)O)C(=O)N[C@@H](CC(=O)O)C(=O)N[C@@H](CCCNC(=N)N)C(=O)NC(C)(C)C(=O)N[C@@H](C)C(=O)N[C@@H](CCC(N)=O)C(=O)NC(C)(C)C(=O)N[C@@H](CC(N)=O)C(=O)N[C@@H](Cc1ccccc1)C(=O)N[C@H](C(=O)N[C@@H](CC(N)=O)C(=O)N[C@@H](Cc1c[nH]c2ccccc12)C(=O)N[C@@H](CC(C)C)C(=O)N[C@@H](CC(C)C)C(=O)N[C@@H](C)C(=O)N[C@@H](CCC(N)=O)C(=O)N[C@@H](CCCNC(=N)N)C(N)=O)C(C)C` [Compound 250], for which the solubility is ≥ 700 µg/mL.

On to `CC[C@H](C)[C@H](NC(=O)[C@H](CO)NC(=O)[C@H](Cc1ccc(O)cc1)NC(=O)[C@H](CC(=O)O)NC(=O)[C@H](CO)NC(=O)[C@@H](NC(=O)[C@H](Cc1ccccc1)NC(=O)[C@@H](NC(=O)CNC(=O)[C@H](CCC(=O)O)NC(=O)C(C)(C)NC(=O)[C@H](Cc1ccc(O)cc1)NC)[C@@H](C)O)[C@@H](C)CC)C(=O)N[C@@H](C)C(=O)N[C@@H](CCCCNC(=O)CNC(=O)CNC(=O)CNC(=O)CNC(=O)CNC(=O)CCCCCCCCCCCCCCCCC(=O)O)C(=O)N[C@@H](CC(=O)O)C(=O)N[C@@H](CCCNC(=N)N)C(=O)NC(C)(C)C(=O)N[C@@H](C)C(=O)N[C@@H](CCC(N)=O)C(=O)NC(C)(C)C(=O)N[C@@H](CC(N)=O)C(=O)N[C@@H](Cc1ccccc1)C(=O)N[C@H](C(=O)N[C@@H](CC(N)=O)C(=O)N[C@@H](Cc1c[nH]c2ccccc12)C(=O)N[C@@H](CC(C)C)C(=O)N[C@@H](CC(C)C)C(=O)N[C@@H](C)C(=O)N[C@@H](CCC(N)=O)C(=O)N[C@@H](CCCNC(=N)N)C(=O)O)C(C)C` [Compound 251], for which the solubility was ≥ 7000 µg/mL.

Take `CC[C@H](C)[C@H](NC(=O)[C@H](CCCNC(=N)N)NC(=O)[C@H](CC(=O)O)NC(=O)[C@H](CCCCNC(=O)COCCOCCNC(=O)COCCOCCNC(=O)CC[C@H](NC(=O)CCCCCCCCCCCCCCCCC(=O)O)C(=O)O)NC(=O)[C@H](C)NC(=O)[C@@H](NC(=O)[C@H](CO)NC(=O)[C@H](Cc1ccc(O)cc1)NC(=O)[C@H](CC(=O)O)NC(=O)[C@H](CO)NC(=O)[C@@H](NC(=O)[C@H](Cc1ccccc1)NC(=O)[C@@H](NC(=O)CNC(=O)[C@H](CCC(=O)O)NC(=O)C(C)(C)NC(=O)[C@H](Cc1ccc(O)cc1)NC)[C@@H](C)O)[C@@H](C)CC)[C@@H](C)CC)C(=O)N[C@@H](C)C(=O)N[C@@H](CCC(N)=O)C(=O)NC(C)(C)C(=O)N[C@@H](CC(N)=O)C(=O)N[C@@H](Cc1ccccc1)C(=O)N[C@H](C(=O)N[C@@H](CC(N)=O)C(=O)N[C@@H](Cc1c[nH]c2ccccc12)C(=O)N[C@@H](CC(C)C)C(=O)N[C@@H](CC(C)C)C(=O)N[C@@H](C)C(=O)N[C@@H](CCC(N)=O)C(=O)N[C@@H](CCCNC(=N)N)C(N)=O)C(C)C` [Compound 252] (H-[NMeY][Aib]EGTFISDYSIAK([AEEA-AEEA-γGlu-C18 diacid])DRIAQ[Aib]NFVNWLLAQR-NH2): the solubility was ≥ 7300 µg/mL. As for `CC[C@H](C)[C@H](NC(=O)[C@H](CO)NC(=O)[C@H](Cc1ccc(O)cc1)NC(=O)[C@H](CC(=O)O)NC(=O)[C@H](CO)NC(=O)[C@@H](NC(=O)[C@H](Cc1ccccc1)NC(=O)[C@@H](NC(=O)CNC(=O)[C@H](CCC(=O)O)NC(=O)C(C)(C)NC(=O)[C@H](Cc1ccc(O)cc1)NC)[C@@H](C)O)[C@@H](C)CC)C(=O)N[C@@H](C)C(=O)N[C@@H](CCCCNC(=O)COCCOCCNC(=O)COCCOCCNC(=O)CC[C@H](NC(=O)CCCCCCCCCCCCCCCCC(=O)O)C(=O)O)C(=O)N[C@@H](CC(=O)O)C(=O)N[C@@H](CCCNC(=N)N)C(=O)NC(C)(C)C(=O)N[C@@H](C)C(=O)N[C@@H](CCC(N)=O)C(=O)N[C@@H](CCC(N)=O)C(=O)N[C@@H](CC(N)=O)C(=O)N[C@@H](Cc1ccccc1)C(=O)N[C@H](C(=O)N[C@@H](CC(N)=O)C(=O)N[C@@H](Cc1c[nH]c2ccccc12)C(=O)N[C@@H](CC(C)C)C(=O)N[C@@H](CC(C)C)C(=O)N[C@@H](C)C(=O)N[C@@H](CCC(N)=O)C(=O)N[C@@H](CCCNC(=N)N)C(N)=O)C(C)C` [Compound 253] (H-[NMeY][Aib]EGTFISDYSIAK([AEEA-AEEA-γGlu-C18 diacid])DR[Aib]AQQNFVNWLLAQR-NH2), the solubility was ≥ 7400 µg/mL. For the compound `CC[C@H](C)[C@H](NC(=O)[C@H](CO)NC(=O)[C@H](Cc1ccc(O)cc1)NC(=O)[C@H](CC(=O)O)NC(=O)[C@H](CO)NC(=O)[C@@H](NC(=O)[C@H](Cc1ccccc1)NC(=O)[C@@H](NC(=O)CNC(=O)[C@H](CCC(=O)O)NC(=O)C(C)(C)NC(=O)[C@H](Cc1ccc(O)cc1)NC)[C@@H](C)O)[C@@H](C)CC)C(=O)N[C@@H](C)C(=O)N[C@@H](CCCCNC(=O)COCCOCCNC(=O)COCCOCCNC(=O)CC[C@H](NC(=O)CCCCCCCCCCCCCCCCC(=O)O)C(=O)O)C(=O)N[C@@H](CC(=O)O)C(=O)N[C@@H](CCCNC(=N)N)C(=O)NC(C)(C)C(=O)N[C@@H](C)C(=O)N[C@@H](CCC(N)=O)C(=O)NC(C)(C)C(=O)N[C@@H](CC(N)=O)C(=O)N[C@@H](Cc1ccccc1)C(=O)N[C@H](C(=O)N[C@@H](CC(N)=O)C(=O)N[C@@H](Cc1c[nH]c2ccccc12)C(=O)N[C@@H](CC(C)C)C(=O)N[C@@H](CC(C)C)C(=O)N[C@@H](C)C(=O)N[C@@H](CCC(N)=O)C(=O)N[C@@H](CCCNC(=N)N)C(N)=O)C(C)C` [Compound 254] (H-[NMeY][Aib]EGTFISDYSIAK([AEEA-AEEA-γGlu-C18 diacid])DR[Aib]AQ[Aib]NFVNWLLAQR-NH2), the solubility was ≥ 7200 µg/mL.
